Assay type in all cases: cell-based
The test system of one series is human PBMC. Nature of the series: IL-8 release in human PBMC (ELISA). As to conditions: Homo sapiens, PBMC, 18 h; 0.5 μM; IL-8 release, normalized to LPS positive control=100. As to the method:
In vitro activities in human peripheral blood mononuclear cells (PBMC). Human PBMC were isolated from buffy coats obtained from the San Diego Blood Bank (San Diego, Calif.) as described previously.^5,6 PBMC (1×10^6/mL) were incubated with various compounds in complete RPMI (Omega Scientific) for 18 h at 37° C., 5% CO2 and culture supernatants were collected. The levels of IL-8 in the supernatants were determined by ELISA (BD Biosciences).
Background: ELISA stands for enzyme-linked immunosorbent assay.

The subject of a further series is HepG2 cells. The series is described as follows: MTT assay in HepG2 cells. As to conditions: compounds tested at 10 μM; normalized with OD570-650 of vehicle treatment; in % (unit assumed). (In general: Tetrazolium assays rely on reduction of a dye to a coloured formazan, in cell work by metabolically active cells.)
The target in a further series is T1, TLR4/MD-2/CD14 (Homo sapiens, UniProt O00206+Q9Y6Y9).
T1 construct: host or cells: HEK293 (HEK Blue hTLR4)
T1 sequence (O00206 24-839): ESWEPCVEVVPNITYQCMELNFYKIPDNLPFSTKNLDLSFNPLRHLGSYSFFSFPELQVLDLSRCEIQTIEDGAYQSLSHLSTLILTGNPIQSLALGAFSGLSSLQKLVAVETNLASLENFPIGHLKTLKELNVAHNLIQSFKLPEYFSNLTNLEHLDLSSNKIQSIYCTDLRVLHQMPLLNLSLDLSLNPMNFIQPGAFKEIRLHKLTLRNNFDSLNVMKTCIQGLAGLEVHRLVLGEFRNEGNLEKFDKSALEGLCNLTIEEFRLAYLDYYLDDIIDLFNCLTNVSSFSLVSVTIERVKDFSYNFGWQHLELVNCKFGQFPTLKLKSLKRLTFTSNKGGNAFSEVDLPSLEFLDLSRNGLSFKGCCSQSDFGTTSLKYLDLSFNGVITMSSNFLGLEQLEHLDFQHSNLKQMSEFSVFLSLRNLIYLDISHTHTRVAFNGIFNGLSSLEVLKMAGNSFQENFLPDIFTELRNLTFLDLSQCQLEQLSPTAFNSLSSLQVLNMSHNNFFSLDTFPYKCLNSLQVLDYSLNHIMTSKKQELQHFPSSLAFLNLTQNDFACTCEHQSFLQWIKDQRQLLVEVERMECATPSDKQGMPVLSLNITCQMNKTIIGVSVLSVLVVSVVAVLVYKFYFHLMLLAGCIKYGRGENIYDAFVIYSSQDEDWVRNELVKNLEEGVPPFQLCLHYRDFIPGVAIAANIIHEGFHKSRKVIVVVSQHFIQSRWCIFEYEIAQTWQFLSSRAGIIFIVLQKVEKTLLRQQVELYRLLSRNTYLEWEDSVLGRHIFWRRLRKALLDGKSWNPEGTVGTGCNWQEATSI
T1 sequence (Q9Y6Y9 19-160): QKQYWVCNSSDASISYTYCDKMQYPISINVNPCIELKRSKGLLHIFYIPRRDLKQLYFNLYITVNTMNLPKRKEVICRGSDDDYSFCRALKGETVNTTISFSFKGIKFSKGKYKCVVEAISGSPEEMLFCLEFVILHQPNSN
Nature of the series: hTLR4 HEK Blue reporter cells, NF-κB SEAP secretion (QuantiBlue OD630). The note with it: for hTLR4 0.5 μM: Quantiblue OD630 of hTLR4 HEK Blue cells, normalized to LPS positive control=100; for Activity relative to compound 1a (SAR in words): TLR4 reporter cells and hPBMC. As for the experimental part: In vitro assays using TLR reporter cell lines. Murine or humanTLR4 HEK Blue™ cells (Invivogen, 2.5×10^4 cells per well of a 96 well plate), or NF-κB/SEAPorter™ HEK 293 cells (Imgenex, San Diego, Calif.) for human TLR2, TLR3, TLR5, TLR7, TLR8, or TLR9 (5×10^4 cells per well of 96 well plate) were incubated with graded doses of the test compound. The culture supernatants were harvested after a 20-24 h incubation period. Secreted alkaline phosphatase (SEAP) activity in the supernatants was determined by a colorimetric assay, using either the SEAPorter Assay Kit (Imgenex, San Diego, Calif.), with absorbance read at 405 nm, or QuantiBlue (Invivogen), with absorbance read at 630 nm. In some experiments, graded concentrations of LPS-RS ([…], Invivogen) were used to test TLR4-specific binding of the hit compound.

For `Nc1cc(Nc2nc(C(=O)O)nc3ccccc23)cc(Oc2ccccc2)c1` [Compound 6a, 4-((3-Amino-5-phenoxyphenyl)amino)quinazoline-2-carboxylic acid], the IL-8 release (% of LPS control) at 0.5 µM in the series with human PBMC was determined as 0.3%. In addition, the “HepG2 MT” value in the series on HepG2 cells was 105.0. Also, the “hTLR4 0.5 μM” value at TLR4/MD-2/CD14 is given as 1.1.
In the series with human PBMC, `CCOC(=O)c1nc(Nc2cc(Oc3ccccc3C)cc([N+](=O)[O-])c2)c2ccccc2n1` [Compound 1b, Ethyl 4-((3-nitro-5-(o-tolyloxy)phenyl)amino)quinazoline-2-carboxylate] showed an IL-8 release (% of LPS control) at 0.5 µM of 20.5%. Further, the “HepG2 MT” value in the series on HepG2 cells came to 96.7. For the same compound, on TLR4/MD-2/CD14, the “hTLR4 0.5 μM” value is listed as 45.5 and the “Activity relative to compound 1a (SAR in words)” value (“Activity relative to compound 1a” below) was “enhanced”.
In the same order, the values of `CCOC(=O)c1nc(Nc2cc(N)cc(Oc3ccccc3)c2)c2ccccc2n1` [Compound 5a, Ethyl 4-((3-amino-5-phenoxyphenyl)amino)quinazoline-2-carboxylate] are 0.3%, 106.1, 0.6 and “complete loss of activity”.
With `CC(C)OC(=O)c1nc(Nc2cc(Oc3ccccc3Br)cc([N+](=O)[O-])c2)c2ccccc2n1` [Compound 13g, Isopropyl 4-((3-(2-bromophenoxy)-5-nitrophenyl)amino)quinazoline-2-carboxylate], the IL-8 release (% of LPS control) at 0.5 µM in the series on human PBMC is 19.2%. In the series with HepG2 cells, the “HepG2 MT” value was found to be 106.5. At TLR4/MD-2/CD14, the “hTLR4 0.5 μM” value amounted to 67.8.
The corresponding values for `CC(C)CCOC(=O)c1nc(Nc2cc(Oc3ccccc3)cc([N+](=O)[O-])c2)c2ccccc2n1` [Compound 12a, Isopentyl 4-((3-nitro-5-phenoxyphenyl)amino)quinazoline-2-carboxylate] are 2.2%, 63.4 and 8.4.
In the same order, the values of `O=C(O)c1nc(Nc2cc(Oc3ccccc3Br)cc([N+](=O)[O-])c2)c2ccccc2n1` [Compound 7g, 4-((3-(2-Bromophenoxy)-5-nitrophenyl)amino)quinazoline-2-carboxylic acid] are 0%, 96.3 and 1.6.
As for `COC(=O)c1nc(Nc2cc(Oc3ccccc3)cc([N+](=O)[O-])c2)c2ccccc2n1` [Compound 10a, Methyl 4-((3-nitro-5-phenoxyphenyl)amino)quinazoline-2-carboxylate], the IL-8 release (% of LPS control) at 0.5 µM in the series with human PBMC stood at 0.2%. In the series on HepG2 cells, the “HepG2 MT” value was 116.4. The “hTLR4 0.5 μM” value on TLR4/MD-2/CD14 is on record as 0.4.
In turn, `CCOC(=O)c1nc(Nc2cc(Oc3ccccc3CC)cc([N+](=O)[O-])c2)c2ccccc2n1` [Compound 1e, Ethyl 4-((3-(2-ethylphenoxy)-5-nitrophenyl)amino)quinazoline-2-carboxylate] yielded an IL-8 release (% of LPS control) at 0.5 µM in the series with human PBMC of 3.2%. Also, the “HepG2 MT” value with HepG2 cells is recorded as 98.9. On TLR4/MD-2/CD14, the “hTLR4 0.5 μM” value is listed as 4.2 and the “Activity relative to compound 1a” value is “substantial loss of activity”.
The corresponding values for `CCOC(=O)c1nc(Nc2cc(Oc3ccc4ccccc4c3)cc([N+](=O)[O-])c2)c2ccccc2n1` [Compound 1k, Ethyl 4-((3-(naphthalen-2-yloxy)-5-nitrophenyl)amino)quinazoline-2-carboxylate] are 0%, 111.4, 0.8 and “loss of activity”.
In the series on human PBMC, `CCOC(=O)c1nc(Nc2cc(Oc3ccccc3C(F)(F)F)cc([N+](=O)[O-])c2)c2ccccc2n1` [Compound 1i, Ethyl 4-((3-nitro-5-(2-(trifluoromethyl)phenoxy)phenyl)amino)quinazoline-2-carboxylate] returned an IL-8 release (% of LPS control) at 0.5 µM of 26.5%. Moreover, the “HepG2 MT” value in the series with HepG2 cells was 67.1. For the same compound, on TLR4/MD-2/CD14, the “hTLR4 0.5 μM” value is recorded as 58.7.
The corresponding values for `CCOC(=O)c1nc(Nc2cc(Oc3ccc(C)cc3)cc([N+](=O)[O-])c2)c2ccccc2n1` [Compound 1d, Ethyl 4-((3-nitro-5-(p-tolyloxy)phenyl)amino)quinazoline-2-carboxylate] are 0.4%, 108.8 and 0.5.
The corresponding values for `CCOC(=O)c1nc(Nc2cc(Oc3cccc(C)c3)cc([N+](=O)[O-])c2)c2ccccc2n1` [Compound 1c, Ethyl 4-((3-nitro-5-(m-tolyloxy)phenyl)amino)quinazoline-2-carboxylate] are 5.8%, 109.9 and 14.5.
The corresponding values for `CCOC(=O)c1nc(Nc2cc(Oc3c(C)cccc3C)cc([N+](=O)[O-])c2)c2ccccc2n1` [Compound 1j, Ethyl 4-((3-(2,6-dimethylphenoxy)-5-nitrophenyl)amino)quinazoline-2-carboxylate] are 0%, 106.3 and 0.6.
`NC(=O)c1nc(Nc2cc(Oc3ccccc3)cc([N+](=O)[O-])c2)c2ccccc2n1` [Compound 9a, 4-((3-nitro-5-phenoxyphenyl)amino)quinazoline-2-carboxamide] yielded an IL-8 release (% of LPS control) at 0.5 µM with human PBMC of 0.3%. Also, in the series on HepG2 cells, the “HepG2 MT” value is reported as 78.4. For the same compound, the “hTLR4 0.5 μM” value at TLR4/MD-2/CD14 is on record as 0.0.
The compound `CCOC(=O)c1nc(Nc2cc(Oc3ccccc3I)cc([N+](=O)[O-])c2)c2ccccc2n1` [Compound 1h, Ethyl 4-((3-(2-iodophenoxy)-5-nitrophenyl)amino)quinazoline-2-carboxylate] returned an IL-8 release (% of LPS control) at 0.5 µM in the series with human PBMC of 34.2%. In addition, the “HepG2 MT” value in the series on HepG2 cells came to 93.8. For the same compound, at TLR4/MD-2/CD14, the “hTLR4 0.5 μM” value amounted to 65.5 and the “Activity relative to compound 1a” value is on record as “enhanced”.
For the compound `CC(C)OC(=O)c1nc(Nc2cc(Oc3ccccc3)cc([N+](=O)[O-])c2)c2ccccc2n1` [Compound 11a, Isopropyl 4-((3-nitro-5-phenoxyphenyl)amino)quinazoline-2-carboxylate], in the series with human PBMC, the IL-8 release (% of LPS control) at 0.5 µM was 2.1%. Moreover, the “HepG2 MT” value in the series on HepG2 cells was 65.6. In addition, the “hTLR4 0.5 μM” value on TLR4/MD-2/CD14 amounted to 7.4.
The corresponding values for `CCNC(=O)c1nc(Nc2cc(Oc3ccccc3)cc([N+](=O)[O-])c2)c2ccccc2n1` [Compound 8a, N-Ethyl-4-((3-nitro-5-phenoxyphenyl)amino)quinazoline-2-carboxamide] are 1.5%, 107.4 and 2.2.
For `CCOC(=O)c1nc(Nc2cc(Oc3ccccc3Cl)cc([N+](=O)[O-])c2)c2ccccc2n1` [Compound 1f, Ethyl 4-((3-(2-chlorophenoxy)-5-nitrophenyl)amino)quinazoline-2-carboxylate], the IL-8 release (% of LPS control) at 0.5 µM in the series on human PBMC was 27.3%. For the same compound, in the series with HepG2 cells, the “HepG2 MT” value is listed as 107.4. Besides, on TLR4/MD-2/CD14, the “hTLR4 0.5 μM” value is 73.9 and the “Activity relative to compound 1a” value is “enhanced”.
Consider `O=C(O)c1nc(Nc2cc(Oc3ccccc3)cc([N+](=O)[O-])c2)c2ccccc2n1` [Compound 7a, 4-((3-Nitro-5-phenoxyphenyl)amino)quinazoline-2-carboxylic acid], for which the IL-8 release (% of LPS control) at 0.5 µM in the series on human PBMC amounted to 0.5%. Besides, in the series with HepG2 cells, the “HepG2 MT” value turned out to be 84.5. For the same compound, the “hTLR4 0.5 μM” value on TLR4/MD-2/CD14 is 0.6.

Source of the values: patent US20150132342A1, “NOVEL IMMUNE ACTIVATORS: SUBSTITUTE 4-AMINOQUINAZOLINES” (The Regents of the University of California, priority 2013, published 2015).
